PubChem BioAssay (NCI)
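GI50 = concentration required for 50% inhibition of growth. TGI denotes the concentration required for complete inhibition of growth.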

What was measured:
Assay in all cases: NCI-60 cell line screen, 384-well format
[1] = test system: 786-0 renal
[2] = test system: A498 renal
[3] = test system: A549 NSCLC
[4] = test system: ACHN renal
[5] = test system: BT-549 breast
[6] = test system: CAKI-1 renal
[7] = test system: CCRF-CEM leukemia
[8] = test system: COLO 205 colon
[9] = test system: DU-145 prostate
[10] = test system: EKVX NSCLC
[11] = test system: HCC-2998 colon
[12] = test system: HCT-15 colon
[13] = test system: HL-60(TB) leukemia
[14] = test system: HOP-62 NSCLC
[15] = test system: HOP-92 NSCLC
[16] = test system: HS 578T breast
[17] = test system: HT29 colon
[18] = test system: IGROV1 ovarian
[19] = test system: K-562 leukemia
[20] = test system: KM12 colon
[21] = test system: LOX IMVI melanoma
[22] = test system: M14 melanoma
[23] = test system: MALME-3M melanoma
[24] = test system: MCF7 breast
[25] = test system: MDA-MB-231 breast
[26] = test system: MDA-MB-435 melanoma
[27] = test system: MDA-MB-468 breast
[28] = test system: MOLT-4 leukemia
[29] = test system: NCI-H226 lung
[30] = test system: NCI-H23 lung
[31] = test system: NCI-H322M lung
[32] = test system: NCI-H460 NSCLC
[33] = test system: NCI-H522 lung
[34] = test system: NCI/ADR-RES ovarian
[35] = test system: OVCAR-3 ovarian
[36] = test system: OVCAR-4 ovarian
[37] = test system: OVCAR-5 ovarian
[38] = test system: OVCAR-8 ovarian
[39] = test system: PC-3 prostate
[40] = test system: RPMI-8226 leukemia
[41] = test system: RXF 393 renal
[42] = test system: SF-268 CNS
[43] = test system: SF-295 CNS
[44] = test system: SF-539 CNS
[45] = test system: SK-MEL-28 melanoma
[46] = test system: SK-MEL-5 melanoma
[47] = test system: SK-OV-3 ovarian
[48] = test system: SN12C renal
[49] = test system: SNB-19 CNS
[50] = test system: SNB-75 CNS
[51] = test system: SR leukemia
[52] = test system: SW-620 colon
[53] = test system: T-47D breast
[54] = test system: TK-10 renal
[55] = test system: U251 glioblastoma
[56] = test system: UACC-257 melanoma
[57] = test system: UACC-62 melanoma
[58] = test system: UO-31 renal

CCN1CCN(Cc2ccc(-c3cc4c(N[C@H](C)c5ccccc5)ncnc4[nH]3)cc2)CC1
GI50 [1]: 1070 nM
TGI [1]: 2280 nM
GI50 [2]: 1220 nM
TGI [2]: 2610 nM
GI50 [3]: 1060 nM
TGI [3]: 3520 nM
GI50 [4]: 89 nM
TGI [4]: 1520 nM
GI50 [5]: 1590 nM
TGI [5]: 3140 nM
GI50 [6]: 299 nM
TGI [6]: 1880 nM
GI50 [7]: 1830 nM
TGI [7]: 3230 nM
GI50 [8]: 1780 nM
TGI [8]: 3290 nM
GI50 [9]: 1540 nM
TGI [9]: 10800 nM
GI50 [10]: 91.2 nM
TGI [10]: 2340 nM
GI50 [11]: 1560 nM
TGI [11]: 3040 nM
GI50 [12]: 1360 nM
TGI [12]: 2750 nM
GI50 [13]: 1660 nM
TGI [13]: 3020 nM
GI50 [14]: 1660 nM
TGI [14]: 3310 nM
GI50 [15]: 1260 nM
TGI [15]: 2640 nM
GI50 [16]: 1480 nM
TGI [16]: 2830 nM
GI50 [17]: 1450 nM
TGI [17]: 2930 nM
GI50 [18]: 120 nM
TGI [18]: 695 nM
GI50 [19]: 217 nM
TGI [19]: 550 nM
GI50 [20]: 1920 nM
TGI [20]: 4070 nM
GI50 [21]: 1570 nM
TGI [21]: 2910 nM
GI50 [22]: 1590 nM
TGI [22]: 2950 nM
GI50 [23]: 1380 nM
TGI [23]: 2680 nM
GI50 [24]: 1490 nM
TGI [24]: 2970 nM
GI50 [25]: 1560 nM
TGI [25]: 3640 nM
GI50 [26]: 1620 nM
TGI [26]: 3040 nM
GI50 [27]: 22.7 nM
TGI [27]: 60 nM
GI50 [28]: 1340 nM
TGI [28]: 2620 nM
GI50 [29]: 1100 nM
TGI [29]: 4440 nM
GI50 [30]: 1520 nM
TGI [30]: 3940 nM
GI50 [31]: 51.7 nM
TGI [31]: 1130 nM
GI50 [32]: 1750 nM
TGI [32]: 3570 nM
GI50 [33]: 111 nM
TGI [33]: 1320 nM
GI50 [34]: 2020 nM
TGI [34]: 6110 nM
GI50 [35]: 1320 nM
TGI [35]: 5360 nM
GI50 [36]: 1560 nM
TGI [36]: 5250 nM
GI50 [37]: 440 nM
TGI [37]: 2790 nM
GI50 [38]: 1570 nM
TGI [38]: 3740 nM
GI50 [39]: 1850 nM
TGI [39]: 8640 nM
GI50 [40]: 1280 nM
TGI [40]: 2550 nM
GI50 [41]: 1420 nM
TGI [41]: 2810 nM
GI50 [42]: 1490 nM
TGI [42]: 3350 nM
GI50 [43]: 1710 nM
TGI [43]: 3230 nM
GI50 [44]: 1560 nM
TGI [44]: 2910 nM
GI50 [45]: 1590 nM
TGI [45]: 2940 nM
GI50 [46]: 1530 nM
TGI [46]: 2870 nM
GI50 [47]: 349 nM
TGI [47]: 1710 nM
GI50 [48]: 203 nM
TGI [48]: 2070 nM
GI50 [49]: 2460 nM
TGI [49]: 11600 nM
GI50 [50]: 2040 nM
TGI [50]: 5980 nM
GI50 [51]: 1760 nM
TGI [51]: 3150 nM
GI50 [52]: 1770 nM
TGI [52]: 3510 nM
GI50 [53]: 439 nM
TGI [53]: 2590 nM
GI50 [54]: 389 nM
TGI [54]: 2040 nM
GI50 [55]: 1800 nM
TGI [55]: 3620 nM
GI50 [56]: 1360 nM
TGI [56]: 2640 nM
GI50 [57]: 1620 nM
TGI [57]: 3000 nM
GI50 [58]: 1330 nM
TGI [58]: 11900 nM
